This note sets out measurements from US20190201541A1, “ANTI-CD22 ANTIBODY-MAYTANSINE CONJUGATES, COMBINATIONS, AND METHODS OF USE THEREOF” (Triphase Accelerator U.S. Corporation, priority 2017, published 2019).

The structures appear in SMILES notation.

Common to all, as to assay type: cell-based
Assay [1] relates to Ramos cells. The assay can be described thus: In vitro cytotoxicity, Cell Titer-Glo, 5 d. The settings on record: Homo sapiens, 120 h, 5 d incubation, read-out: IC50 against Ramos cells. On the procedure:
(§1) The CD22-positive B-cell lymphoma cell lines, Ramos and WSU-DLCL2, were obtained from the ATCC and DSMZ cell banks, respectively. The cells were maintained in RPMI-1640 medium (Cellgro, Manassas, Va.) supplemented with 10% fetal bovine serum (Invitrogen, Grand Island, N.Y.) and Glutamax (Invitrogen). 24 h prior to plating, cells were passaged to ensure log-phase growth. On the day of plating, 5000 cells/well were seeded onto 96-well plates in 90 μL normal growth medium supplemented with […] and 10 µg/mL streptomycin (Cellgro). Cells were treated at various concentrations with 10 μL of diluted analytes, and the plates were incubated at 37° C. in an atmosphere of 5% CO2. After 5 d, 100 μL/well of Cell Titer-Glo reagent (Promega, Madison, Wis.) was added, and luminescence was measured using a Molecular Devices SpectraMax M5 plate reader. GraphPad Prism software was used for data analysis.

For assay [2], the system named is WSU-DLCL2 cells. The assay can be described thus: In vitro cytotoxicity, Cell Titer-Glo, 5 d. Conditions: Homo sapiens, WSUDLCL2, 120 h; 5 d incubation; read-out: IC50 against WSU-DLCL2 cells. On the procedure: as §1
In assay [3] the test system is WSU-DLCL2 cells engineered to express MDR1 (MDR1+). The assay can be described thus: In vitro cytotoxicity assay on MDR1-expressing cells. The procedure:
(§2) MDR1 (ABCB1) cDNA was obtained from Sino Biological and cloned into a pEF plasmid with a hygromycin selection marker. An AMAXA Nucleofector™ instrument was used to electroporate Ramos (ATCC CRL-1923) and WSU-DLCL2 (DSMZ ACC 575) cells according to the manufacturer's instructions. After selection with hygromycin (Invitrogen 10687010), the pools were enriched with paclitaxel treatment (25 nM for up to 10 days) to further select cells with functional MDR1. The resulting cells were maintained under hygromycin selection in RPMI (Gibco 21870-092) supplemented with 10% fetal bovine serum (FBS) and 1× GlutaMax (Gibco 35050-079).
(§3) Cell lines were plated in 96-well plates (Costar 3610) at a density of 5×10^4 cells/well in 100 μL of growth media and allowed to rest for 5 h. Serial dilution of test samples was performed in RPMI at 6× the final concentration and 20 μL was added to the cells. After incubation at 37° C. with 5% CO2 for 5 days, viability was measured using a Promega CellTiter 96® AQueous One Solution Cell Proliferation Assay (G3581) according to the manufacturer's instructions. GI50 curves were calculated in GraphPad Prism using the ADC's drug-to-antibody ratio (DAR) value to normalize the dose to the payload concentration.

For assay [4], the system named is Ramos cells engineered to express MDR1 (MDR1+). The assay is described as above. Conditions: versus wild-type cells. The procedure:
as §2, §3

What is called IC50 is the point on the concentration scale where inhibition reaches its midpoint. For `COc1cc2cc(c1Cl)N(C)C(=O)C[C@H](OC(=O)[C@H](C)N(C)C(C)=O)[C@]1(C)O[C@H]1[C@H](C)[C@@H]1C[C@@](O)(NC(=O)O1)[C@H](OC)/C=C/C=C(\C)C2` [free maytansine, maytansine], the IC50 in assay [1] came out at 40 pM; in assay [2], 86 pM. Moreover, in assay [3] (cyclosporin cotreatment), the “potency in MDR1+ WSU-DLCL2 cells on cotreatment with cyclosporin (MDR1 inhibitor)” value is “restored the original potency”. In addition, the “loss of efficacy in MDR1+ WSU-DLCL2 cells” value in assay [3] (versus wild-type cells) was roughly 10 fold. The “loss of efficacy in MDR1+ Ramos cells” value in assay [4] is reported as roughly 10 fold.
